Assay results published in patent publication US12310364B2, “Safened compositions comprising pyridine carboxylate herbicides and cloquintocet” (Corteva Agriscience LLC, priority 2018, dated 2025).
“And” between values parts separate entries of the source, which are not always exact repeats. Equal entries are not always repeated.

Assays:
Format in all cases: in vivo
[1] = tested on: Chinese sprangletop (LEFCH, Leptochloa chinensis); assay: Greenhouse postemergence trial, visual injury on Chinese sprangletop; details: Table 19
Description: (§1) Greenhouse Trial Methodology—Evaluation of Postemergence Herbicidal Safening in Crops
(§2) Seeds of the desired test plant species were planted in a 90:10% v/v (volume/volume) mixture of PRO-MIX® BX (Premier Tech Horticulture, Quakertown, PA, USA) and PROFILE® GREENS GRADE™ (Profile Products LLC, Buffalo Grove, IL, USA) planting mixture, which typically has a pH of 5.2 to 6.2 and an organic matter content of at least 50 percent, in plastic pots with a surface area of 103.2 square centimeters (cm^2). When required to ensure good germination and healthy plants, a fungicide treatment and/or other chemical or physical treatment was applied. The plants were grown for 7-36 days (d) in a greenhouse with an approximate 14-hour (h) photoperiod which was maintained at about 23° C. during the day and 22° C. during the night. Nutrients and water were added on a regular basis and supplemental lighting was provided with overhead metal halide 1000-Watt lamps as necessary. The plants were employed for testing when they reached the second or third true leaf stage.
(§3) Emulsifiable concentrates of each of each pyridine carboxylate herbicide (Compound A or Compound B) were prepared at 100 grams acid equivalent per liter (g ae/L). An aliquot of each emulsifiable concentrate was placed in a 25 mL glass vial and diluted with an aqueous mixture of 1.25% (v/v) ACTIROB® B esterified rapeseed oil (Bayer Crop Science, Research Triangle Park, NC, USA) or MSO® Concentrate with LECI-TECH® methylated soybean oil (Loveland Products, Loveland, CO, USA) to obtain concentrated stock solutions at the highest application rate for each herbicide, based upon a 12 milliliter (mL) application volume at a rate of 187 liters per hectare (L/ha). The concentrated stock solutions were further diluted with an aqueous mixture of 1.25% v/v ACTIROB® B or MSO® Concentrate with LECI-TECH® to obtain stock solutions at reduced application rates for each herbicide. Spray solutions of the herbicide combinations (Compound A or Compound B plus safener) were prepared by adding weighed amounts or aliquots of the safener to the stock solutions of Compound A or Compound B to form 12-mL spray solutions in two-way combinations. […]
(§4) The treated plants and control plants were placed in a greenhouse as described above and watered by sub-irrigation to prevent wash-off of the test compounds. After 20-22 d, the condition of the test plants as compared with that of the control plants was determined visually and scored on a scale of 0 to 100 percent where 0 corresponds to no injury and 100 corresponds to complete kill.

[2] = tested on: barnyardgrass (ECHCG, Echinochloa crus-galli); assay: Greenhouse postemergence trial, visual injury on barnyardgrass; details: Table 19
Description: as §1, §2, §3, §4

[3] = tested on: Sinapis arvensis (wild mustard), SINAR; assay: Greenhouse postemergence trial, visual injury on wild mustard
Description: as §1, §2
(§5) Emulsifiable concentrates of each of each pyridine carboxylate herbicide (Compound A or Compound B) were prepared at 100 grams acid equivalent per liter (g ae/L). An aliquot of each emulsifiable concentrate was placed in a 25 mL glass vial and diluted with an aqueous mixture of 1.25% (v/v) ACTIROB® B esterified rapeseed oil (Bayer Crop Science, Research Triangle Park, NC, USA) or MSO® Concentrate with LECI-TECH® methylated soybean oil (Loveland Products, Loveland, CO, USA) to obtain concentrated stock solutions at the highest application rate for each herbicide, based upon a 12 milliliter (mL) application volume at a rate of 187 liters per hectare (L/ha). The concentrated stock solutions were further diluted with an aqueous mixture of 1.25% v/v ACTIROB® B or MSO® Concentrate with LECI-TECH® to obtain stock solutions at reduced application rates for each herbicide. Spray solutions of the herbicide combinations (Compound A or Compound B plus safener) were prepared by adding weighed amounts or aliquots of the safener to the stock solutions of Compound A or Compound B to form 12-mL spray solutions in two-way combinations.
(§6) The spray solutions were applied to the plant material with an overhead Mandel track sprayer equipped with 8002E nozzles calibrated to deliver 187 L/ha over an application area of 0.503 square meters (m^2) at a spray height of 18 inches (43 centimeters (cm)) above the average plant canopy. Control plants were sprayed in the same manner with the solvent blank. All herbicide (component a) application rates are given as “g ae/ha” and all safener (component b) application rates are given as “g ai/ha.”
as §4

[4] = tested on: Triticum aestivum (durum wheat), TRZDU; assay: Greenhouse postemergence safening trial, visual injury on durum wheat
Experimental: (§7) Greenhouse Trial Methodology-Evaluation of Postemergence Herbicidal […] in Crops […] When required to ensure good germination and healthy plants, a fungicide treatment and/or other chemical or physical treatment was applied. The plants were grown for 7-36 days (d) in a greenhouse with an approximate 14-hour (h) photoperiod which was maintained at about 23° C. during the day and 22° C. during the night. Nutrients and water were added on a regular basis and supplemental lighting was provided with overhead metal halide 1000-Watt lamps as necessary. The plants were employed for testing when they reached the second or third true leaf stage. Emulsifiable concentrates of each of each pyridine carboxylate herbicide (Compound A or Compound B) were prepared at 100 grams acid equivalent per liter (g ae/L). […] The concentrated stock solutions were further diluted with an aqueous mixture of 1.25% […] or MSO® Concentrate with LECI-TECH® to obtain stock solutions at reduced application rates for each herbicide. Spray solutions of the herbicide combinations (Compound A or Compound B plus safener) were prepared by adding weighed amounts or aliquots of the safener to the stock solutions of Compound A or Compound B to form 12-mL spray solutions in two-way combinations. […] Control plants were sprayed in the same manner with the solvent blank. All herbicide (component a) application rates are given as “g ae/ha” and all safener (component b) application rates are given as “g ai/ha.” The treated plants and control plants were placed in a greenhouse as described above and watered by sub-irrigation to prevent wash-off of the test compounds.

[5] = tested on: wild oat (AVEFA, Avena fatua); assay: Greenhouse postemergence trial, visual injury on wild oat; details: Table 19
Description: as §1, §2, §3, §4

[6] = tested on: ivyleaf morningglory (IPOHE, Ipomoea hederacea); assay: Greenhouse postemergence trial, visual injury on ivyleaf morningglory; details: Table 19
Description: as §1, §2, §3, §4

[7] = tested on: Matricaria inodora (false chamomile), MATIN; assay: Greenhouse postemergence trial, visual injury on false chamomile
Description: as §1, §2, §5, §6, §4

[8] = tested on: Hordeum vulgare (winter barley), HORVW; assay: Greenhouse postemergence safening trial, visual injury on winter barley
Experimental: as §7

[9] = tested on: Canada thistle (CIRAR, Cirsium arvense); assay: Greenhouse postemergence trial, visual injury on Canada thistle; details: Table 19
Description: as §1, §2, §3, §4

[10] = tested on: soybean (GLXMA, Glycine max); assay: Greenhouse postemergence trial, visual injury on soybean; details: Table 19
Description: as §1, §2, §3, §4

[11] = tested on: Canada horseweed (ERICA, Erigeron canadensis); assay: Greenhouse postemergence trial, visual injury on Canada horseweed; details: Table 19
Description: as §1, §2, §3, §4

[12] = CQC-mexyl 10 g/ha alone, Table 16
[13] = CQC-mexyl 20 g/ha alone, Table 16
[14] = CQC-mexyl 40 g/ha alone, Table 16
[15] = CQC-mexyl 80 g/ha alone, Table 16
[16] = CQC-mexyl 40 g/ha alone, Table 14
[17] = Compound A 40 g/ha alone, Table 16
[18] = Compound A 40 g/ha alone, Table 14

## CCCCCC(C)OC(=O)COc1ccc(Cl)c2cccnc12 (stereo not shown) [CQC-mexyl, cloquintocet-mexyl]
[1]; CQC-mexyl 20 g/ha alone
  % visual injury, Ob: 0%
[1]; CQC-mexyl 40 g/ha alone
  % visual injury, Ob: 0%
[1]; CQC-mexyl 80 g/ha alone
  % visual injury, Ob: 0%
[2]; CQC-mexyl 20 g/ha alone
  % visual injury, Ob: 0%
[2]; CQC-mexyl 40 g/ha alone
  % visual injury, Ob: 0%
[2]; CQC-mexyl 80 g/ha alone
  % visual injury, Ob: 0%
[3]; [12]
  % visual injury, Ob: 0%
[3]; [13]
  % visual injury, Ob: 0%
[3]; [14]
  % visual injury, Ob: 0%
[3]; [15]
  % visual injury, Ob: 0%
[3]; safener alone 5 g/ha
  % visual injury, Ob: 0%
[3]; safener alone 10 g/ha
  % visual injury, Ob: 0%
[3]; safener alone 20 g/ha
  % visual injury, Ob: 0%
[3]; safener alone 40 g/ha
  % visual injury, Ob: 0%
[4]; [16]
  % visual injury, Ob: 0%
[4]; safener alone 40 g/ha
  % visual injury, Ob: 0%
[5]; CQC-mexyl 20 g/ha alone
  % visual injury, Ob: 0%
[5]; CQC-mexyl 40 g/ha alone
  % visual injury, Ob: 0%
[5]; CQC-mexyl 80 g/ha alone
  % visual injury, Ob: 0%
[6]; CQC-mexyl 20 g/ha alone
  % visual injury, Ob: 0%
[6]; CQC-mexyl 40 g/ha alone
  % visual injury, Ob: 0%
[6]; CQC-mexyl 80 g/ha alone
  % visual injury, Ob: 0%
[7]; [12]
  % visual injury, Ob: 0%
[7]; [13]
  % visual injury, Ob: 0%
[7]; [14]
  % visual injury, Ob: 0%
[7]; [15]
  % visual injury, Ob: 0%
[8]; CQC-mexyl 5 g/ha alone, Table 15
  % visual injury, Ob: 0%
[8]; CQC-mexyl 10 g/ha alone, Table 15
  % visual injury, Ob: 0%
[8]; [12]
  % visual injury, Ob: 0%
[8]; CQC-mexyl 20 g/ha alone, Table 15
  % visual injury, Ob: 0%
[8]; [13]
  % visual injury, Ob: 0%
[8]; [16]
  % visual injury Δ: 0%
  % visual injury, Ob: 0%
[8]; CQC-mexyl 40 g/ha alone, Table 15
  % visual injury, Ob: 0%
[8]; [14]
  % visual injury, Ob: 0%
[8]; [15]
  % visual injury, Ob: 0%
[8]; safener alone 40 g/ha
  % visual injury Δ: 0%
  % visual injury, Ob: 0%
[9]; CQC-mexyl 20 g/ha alone
  % visual injury, Ob: 0%
[9]; CQC-mexyl 40 g/ha alone
  % visual injury, Ob: 0%
[9]; CQC-mexyl 80 g/ha alone
  % visual injury, Ob: 0%
[10]; CQC-mexyl 20 g/ha alone
  % visual injury, Ob: 0%
[10]; CQC-mexyl 40 g/ha alone
  % visual injury, Ob: 0%
[10]; CQC-mexyl 80 g/ha alone
  % visual injury, Ob: 0%
[11]; CQC-mexyl 20 g/ha alone
  % visual injury, Ob: 0%
[11]; CQC-mexyl 40 g/ha alone
  % visual injury, Ob: 0%
[11]; CQC-mexyl 80 g/ha alone
  % visual injury, Ob: 0%

## N#CCOC(=O)c1nc(-c2ccc3cc[nH]c3c2F)c(F)c(N)c1Cl [Compound A, cyanomethyl 4-amino-3-chloro-5-fluoro-6-(7-fluoro-1H-indol-6-yl)pyridine-2-carboxylate]
[1]; Compound A 20 g/ha alone
  % visual injury, Ob: 60%
[2]; Compound A 20 g/ha alone
  % visual injury, Ob: 85%
[3]; [17]
  % visual injury, Ob: 99%
[3]; herbicide alone 40 g/ha
  % visual injury, Ob: 99%
[4]; [18]
  % visual injury, Ob: 45%
[4]; herbicide alone 40 g/ha
  % visual injury, Ob: 45%
[5]; Compound A 20 g/ha alone
  % visual injury, Ob: 0%
[6]; Compound A 20 g/ha alone
  % visual injury, Ob: 0%
[7]; [17]
  % visual injury, Ob: 100%
[7]; herbicide alone 40 g/ha
  % visual injury, Ob: 100%
[8]; Compound A 20 g/ha alone, Table 15
  % visual injury, Ob: 15%
[8]; [18]
  % visual injury Δ: 0%
  % visual injury, Ob: 40%
[8]; [17]
  % visual injury, Ob: 30%
[8]; herbicide alone 20 g/ha
  % visual injury, Ob: 15%
[8]; herbicide alone 40 g/ha
  % visual injury Δ: 0%
  % visual injury, Ob: 40% and 30%
[9]; Compound A 20 g/ha alone
  % visual injury, Ob: 95%
[10]; Compound A 20 g/ha alone
  % visual injury, Ob: 100%
[11]; Compound A 20 g/ha alone
  % visual injury, Ob: 95%
